Measured values: patent US4943580A, “Anti-histaminic benzimidazole, imidazopyridine and purine derivatives” (Janssen Pharmaceutica N.V., priority 1989, dated 1990)

system: compound 48/80-induced lethality; test: Protection of rats from compound 48/80-induced lethality; type: in vivo, rat (male, inbred Wistar strain); conditions: Rattus norvegicus; rats treated subcutaneously or orally 1 hour before compound 48/80 0.5 mg/kg intravenously; 50% of animals protected; survival after 4 hours; read-out: Compound 48/80 lethality test in rats-ED50
Source text: Protection of rats from compound […] lethality
Compound 48/80, a mixture of oligomers obtained by condensation of 4-methoxy-N-methylbenzeneethanamine and formaldehyde has been described as a potent histamine releasing agent (Int. Arch. Allergy, 13, 336 (1958)). The protection from compound 48/80-induced lethal circulatory collapse appears to be a simple way of evaluating quantitatively the antihistaminic activity of test compounds. Male rats of an inbred Wistar strain, weighing 240-260 g were used in the experiment. After overnight starvation the rats were transferred to conditioned laboratories (temp.=[…], relative humidity=65±5%). The rats were treated subcutaneously or orally with a test compound or with the solvent (NaCl solution, 0.9%). One hour after treatment there was injected intravenously compound 48/80, freshly dissolved in water, at a dose of 0.5 mg/kg (0.2 ml/100 g of body weight). In control experiments, wherein 250 solvent-treated animals were injected with the standard dose of compound 48/80, not more than 2.8% of the animals survived after 4 hours. Survival after 4 hours is therefore considered to be a safe criterion of a protective effect of drug administration. Said ED50 -values are the values in mg/kg body weight at which the tested compounds protect 50% of the tested animals against compound 48/80-induced lethality.

Row | Compound | ED50 [mg/kg]
1 | CCOCCn1c(NC2CCN(C)CC2)nc2cccnc21 [Compound 108, 3-(2-ethoxyethyl)-N-(1-methyl-4-piperidinyl)-3H-imidazo[4,5-b]pyridin-2-amine] | 0.04
2 | CCOCCn1c(NC2CCN(CCc3c(C)nc4n(c3=O)CCCC4)CC2)nc2cccnc21 [Compound 70] | 0.04
3 | CCOCCn1c(NC2CCN(CCSc3ccccc3)CC2)nc2cccnc21 [Compound 100, 3-(2-ethoxyethyl)-N-[1-[2-(phenylthio)ethyl]-4-piperidinyl]-3H-imidazo [4,5-b]-pyridin-2-amine] | 0.04
4 | CCOCCn1c(NC2CCN(CCc3c(C)nc4sccn4c3=O)CC2)nc2cccnc21 [Compound 64] | 0.02
5 | CCOCCn1c(NC2CCN(CCNC(=O)c3ccoc3)CC2)nc2cccnc21 [Compound 142, N-[2-[4-[[3-(2-ethoxyethyl)-3H-imidazo[4,5-b]pyridin-2-yl]amino]-1-piperidinyl]ethyl]-3-furancarboxamide] | 0.04
6 | CCOCCn1c(NC2CCN(CCCC(C)=O)CC2)nc2cccnc21 [Compound 61] | 0.04
7 | CCOCCn1c(CC2CCN(CCNc3ncccn3)CC2)nc2cccnc21 [Compound 131, N-[2-[4-[[3-(2-ethoxyethyl)-3H-imidazo[4,5-b]pyridin-2-yl]methyl]-1-piperidinyl]ethyl]-2-pyrimidinamine] | 0.02
8 | CCOCCn1c(NC2CCN(CC)CC2)nc2cccnc21 [Compound 115] | 0.04
9 | CCOCCn1c(NC2CCN(CCc3ccccn3)CC2)nc2cccnc21 [Compound 151, 3-(2-ethoxyethyl)-N-[1-[2-(2-pyridinyl)ethyl]-4-piperidinyl]-3H-imidazo-[4,5-b]pyridin-2-amine] | 0.02
10 | CCOCCn1c(CC2CCN(CCc3ccccn3)CC2)nc2cccnc21 [Compound 152, 3-(2-ethoxyethyl)-2-[[1-[2-(2-pyridinyl)ethyl]-4-piperidinyl]methyl]-3H-imidazo-[4,5-b]pyridine] | 0.005
11 | CCOCCn1c(NC2CCN(CCCC(=O)c3ccc(F)cc3)CC2)nc2cccnc21 [Compound 65] | 0.02
12 | CCOCCn1c(NC2CCN(CCc3ccc(OC)cc3)CC2)nc2cccnc21 [Compound 45] | 0.02
13 | CCOCCn1c(NC2CCN(CCc3c(C)nc4ccccn4c3=O)CC2)nc2cccnc21 [Compound 46] | 0.01
14 | CCOCCn1c(CC2CCN(C)CC2)nc2cccnc21 [Compound 126] | 0.04
15 | CCOCCn1c(NC2CCN(CCNc3ncccn3)CC2)nc2cccnc21 [Compound 132, 3-(2-ethoxyethyl)-N-[1-[2-(2-pyrimidinylamino)ethyl]-4-piperidinyl]-3H-imidazo[4,5-b]pyridin-2-amine] | 0.01
16 | CCOCCn1c(CC2CCN(CCc3ccc(OC)cc3)CC2)nc2cccnc21 [Compound 59] | 0.02
17 | CCOCCn1c(CC2CCN(CCNC(=O)c3nccs3)CC2)nc2cccnc21 [Compound 144, N-[2-[4-[[3-(2-ethoxyetyyl)-3H-imidazo[4,5-b]pyridin-2-yl]methyl]-1-piperidinyl]ethyl]-2-thiazolecarboxamide] | 0.02
18 | CCOCCn1c(NC2CCN(CCc3cc4ccccc4oc3=O)CC2)nc2cccnc21 [Compound 82] | 0.04
19 | CCOCCn1c(NC2CCN(CCCOc3ccc(F)cc3)CC2)nc2cccnc21 [Compound 63] | 0.04
20 | CCOCCn1c(CC2CCN(CCOc3ncccn3)CC2)nc2cccnc21 [Compound 134, 3-(2-ethoxyethyl)-2-[[1-[2-(2-pyrimidinyloxy)ethyl]4-piperidinyl]methyl]-3H-imidazo-[4,5-b]pyridine] | 0.005
21 | CCOCCn1c(CC2CCN(CCc3c(C)nc4ccccn4c3=O)CC2)nc2cccnc21 [Compound 62] | 0.04
22 | CCOCCn1c(NC2CCN(CCNc3nc4cnccc4[nH]3)CC2)nc2cccnc21 [Compound 141, 3-(2-ethoxyethyl)-N-[1-[2-[(1H-imidazo[4,5-c]pyridin-2-yl)amino]ethyl]-4-piperidinyl]-3H-imidazo[4,5-b]pyridin-2-amine] | 0.02
23 | CCOCCn1c(NC2CCN(CCn3c(=O)[nH]c4ccccc4c3=O)CC2)nc2cccnc21 [Compound 68] | 0.04
24 | CCOCCn1c(NC2CCN(CCc3scnc3C)CC2)nc2cccnc21 [Compound 67] | 0.02
25 | CCOCCn1c(NC2CCN(CCOc3ncccn3)CC2)nc2cccnc21 [Compound 133, 3-(2-ethoxyethyl)-N-[1-[2-(2-pyrimidinyloxy)ethyl]-4-piperidinyl]-3H-imidazo-[4,5-b]pyridin-2-amine] | 0.02
26 | CCOCCn1c(CC2CCN(CCn3c(=O)[nH]c4ccccc43)CC2)nc2cccnc21 [Compound 80] | 0.02
27 | CCOCCn1c(NC2CCN(CCNC(=O)c3cccn3C)CC2)nc2cccnc21 [Compound 143, N-[2-[4-[[3-(2-ethoxyethyl)-3H-imidazo[4,5-b]pyridin-2-yl]amino]-1-piperidinyl]ethyl]-1-methyl-1H-pyrrole-2-carboxamide] | 0.02
